According to the supplement of paper PMC8253809:

Test system: iASTRO (astrocyte control)
Experiment: growth inhibition relative to DMSO (0) and positive control (1) (fraction); higher = more growth inhibition
How it was run: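 Paediatric high-grade glioma (pHGG) cell lines and astrocytes were seeded on Geltrex-coated 384-well plates and exposed for 7 days to a two-drug dose matrix in two plate orientations. CellTiter-Glo luminescence was scaled, without log2 transformation, so that solvent wells equal 0 and positive-control wells equal 1. Values are expressed as fractional activity and served as input for response-surface synergy modelling. Single-agent values come from the one-drug arms of those same matrix plates.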

O=C(NOC[C@H](O)CO)c1ccc(F)c(F)c1Nc1ccc(I)cc1F + CC1(C)OCCn2c1nc1c(N3CCOCC3)nc(-c3cnc(N)nc3)nc12 [GDC0084]
growth inhibition
Conditions | compound 1 concentration 0.009766 µM | compound 1 concentration 0.01953 µM | compound 1 concentration 0.03906 µM | compound 1 concentration 0.07812 µM | compound 1 concentration 0.15625 µM | compound 1 concentration 0.3125 µM | compound 1 concentration 0.625 µM | compound 1 concentration 1.25 µM | compound 1 concentration 5 µM | compound 1 concentration 20 µM
compound 2 concentration 0.03906 µM | 0.0351 | 0.072 | 0.0628 | 0.082 | 0.097 | 0.097 | 0.102 | 0.0401 | -0.0539 | -0.0303
compound 2 concentration 0.07812 µM | 0.0868 | 0.0655 | 0.0861 | 0.0688 | 0.093 | 0.134 | 0.15 | 0.0961 | 0.0858 | 0.0424
compound 2 concentration 0.15625 µM | 0.123 | 0.128 | 0.113 | 0.0769 | 0.0999 | 0.115 | 0.0997 | 0.104 | 0.0381 | 0.0629
compound 2 concentration 0.3125 µM | 0.0584 | 0.0952 | 0.0549 | 0.0979 | 0.0838 | 0.126 | 0.158 | 0.146 | 0.164 | 0.196
compound 2 concentration 0.625 µM | 0.0444 | 0.0912 | 0.0357 | 0.0123 | 0.112 | 0.148 | 0.303 | 0.443 | 0.516 | 0.588
compound 2 concentration 1.25 µM | 0.21 | 0.214 | 0.279 | 0.319 | 0.44 | 0.568 | 0.731 | 0.784 | 0.811 | 0.836
compound 2 concentration 5 µM | 0.756 | 0.777 | 0.798 | 0.811 | 0.83 | 0.858 | 0.875 | 0.887 | 0.901 | 0.887
compound 2 concentration 20 µM | 0.822 | 0.806 | 0.821 | 0.841 | 0.849 | 0.873 | 0.889 | 0.901 | 0.9 | 0.909

CC1(C)OCCn2c1nc1c(N3CCOCC3)nc(-c3cnc(N)nc3)nc12 [GDC0084] + O=C(NOC[C@H](O)CO)c1ccc(F)c(F)c1Nc1ccc(I)cc1F [PD0325901]
growth inhibition
Conditions | compound 1 concentration 0.009766 µM | compound 1 concentration 0.01953 µM | compound 1 concentration 0.03906 µM | compound 1 concentration 0.07812 µM | compound 1 concentration 0.15625 µM | compound 1 concentration 0.3125 µM | compound 1 concentration 0.625 µM | compound 1 concentration 1.25 µM | compound 1 concentration 5 µM | compound 1 concentration 20 µM
compound 2 concentration 0.03906 µM | 0.09 | 0.0454 | 0.118 | 0.094 | 0.0396 | 0.0144 | -0.00856 | 0.184 | 0.758 | 0.807
compound 2 concentration 0.07812 µM | 0.121 | 0.0878 | 0.134 | 0.118 | 0.109 | 0.12 | 0.0894 | 0.264 | 0.802 | 0.813
compound 2 concentration 0.15625 µM | 0.0937 | 0.147 | 0.167 | 0.0963 | 0.0973 | 0.0664 | 0.0992 | 0.309 | 0.815 | 0.825
compound 2 concentration 0.3125 µM | 0.149 | 0.11 | 0.135 | 0.176 | 0.144 | 0.0844 | 0.154 | 0.446 | 0.833 | 0.846
compound 2 concentration 0.625 µM | 0.15 | 0.125 | 0.146 | 0.159 | 0.128 | 0.129 | 0.317 | 0.675 | 0.878 | 0.884
compound 2 concentration 1.25 µM | 0.155 | 0.123 | 0.103 | 0.0682 | 0.108 | 0.207 | 0.459 | 0.766 | 0.878 | 0.893
compound 2 concentration 5 µM | 0.108 | 0.0234 | 0.0231 | 0.0442 | 0.0662 | 0.219 | 0.546 | 0.791 | 0.875 | 0.891
compound 2 concentration 20 µM | 0.14 | 0.0807 | 0.0709 | 0.0677 | 0.0926 | 0.24 | 0.627 | 0.821 | 0.881 | 0.902
